Measurements taken from patent publication US8987250B2 (Gilead Sciences, Inc., priority 2012, dated 2015).
Where two headings read alike, the source gives them in different places.

What was measured:
HIV-IIIb = assay: Test A: Antiviral Assay in MT4 Cells; assay type: cell-based; conditions: MT-4 cells infected with HIV-IIIb, 5 days of incubation, CellTiter-Glo, read-out: EC50
Method in brief: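 Read-out: CellTiter-Glo chemiluminescence after 5-day incubation at 37 °C. Compounds tested as 3-fold serial dilutions (10 concentrations, quadruplicate) in RPMI 1640 with 10% FBS, on MT-4 cells pre-infected at 37 °C with HIV-IIIb at 0.004 m.o.i.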

human liver microsomes = assay: Test B: Metabolic Stability Assay with Human Liver Microsomes; assay type: in vitro ADME; conditions: 1 uM compound, 1 mg/mL human liver microsomal proteins, 37° C., 0-60 minutes; half-life class
Description: Test B: Metabolic Stability Assay with Human Liver Microsomes
Effective viral suppression in the HIV infected patient requires that the antiviral drug persists in the patient's body at concentrations exceeding the minimum concentration required to inhibit viral proliferation. One of the factors controlling the drug levels after dosing is metabolic conversion. The liver is one site of drug metabolism. Approximately 60% of marketed drugs are cleared by hepatic metabolism (McGinnity D F et al. (2004) Drug Metab Dispos 32; 1247-1253). Liver microsomes are subcellular fractions which contain membrane bound drug metabolising enzymes. Human liver microsomes provide a convenient and concentrated source of the key liver metabolic enzymes (e.g., cytochromes P450, UDP-glucuronosyltransferases, and many others) and can be used to predict the metabolic stability of drug candidates (e.g., agents).
Cluster tubes containing 500 uL of 1 uM compound with 1 mg/mL human liver microsomal proteins (BD Biosciences, BD452117)/50 mM K-phosphate buffer pH7.4/NADPH regenerating system/and UDP-glucuronosyltransferase cofactors, were incubated on the Precision-2000 workstation at 37° C. for 0, 10, 25, 60 minutes. The reactions were quenched with 100 uL of 0.2% formic acid in 90% ACN; containing 50 nM of an internal standard. The samples were analyzed on LC/MS/MS instrument (Q-Trap). Metabolic stabilities in microsomal fractions and hepatocytes were determined by measuring the rate of disappearance of the compound. Data (% of parent remaining) were plotted on a semi logarithmic scale and fitted using an exponential fit.

[1] = Human immunodeficiency virus 1, IIIB, MT4, 120 h, Table 1
[2] = Human immunodeficiency virus 1, IIIB, MT4, 120 h, Table 2

Cc1cc2nc(-c3cccc(-c4ccc5c(cnn5C)c4)c3)sc2c(-c2ccc3c4c(ccnc24)CCO3)c1[C@H](OC(C)(C)C)C(=O)O (atropisomer, axis not shown) [Compound 163]
EC50 (HIV-IIIb; Table 1): 18 nM
Human Microsomal stability (human liver microsomes): C (a human microsomal stability half-life of less than 150 minutes)

COc1cncc(-c2cccc(-c3nc4cc(C)c([C@H](OC(C)(C)C)C(=O)O)c(-c5ccc(Cl)cc5)c4s3)c2)c1 [Compound 104, (S)-2-tert-butoxy-2-(7-(4-chlorophenyl)-2-(3-(5-methoxypyridin-3-yl)phenyl)-5-methylbenzo[d]thiazol-6-yl)acetic acid]
EC50 (HIV-IIIb; [1]): 42 nM
Human Microsomal stability (human liver microsomes): C (a human microsomal stability half-life of less than 150 minutes)

Cc1cc2nc(-c3cccc(-c4ccnc(Cl)c4)c3)sc2c(-c2ccc(Cl)cc2)c1[C@H](OC(C)(C)C)C(=O)O [Compound 107, (S)-2-tert-butoxy-2-(7-(4-chlorophenyl)-2-(3-(2-chloropyridin-4-yl)phenyl)-5-methylbenzo[d]thiazol-6-yl)acetic acid]
EC50 (HIV-IIIb; [1]): 46 nM
Human Microsomal stability (human liver microsomes): C (a human microsomal stability half-life of less than 150 minutes)

Cc1cc2nc(-c3cccc(-c4ccc5c(cnn5C)c4)c3)sc2c(-c2ccc(Cl)cc2)c1[C@H](OC(C)(C)C)C(=O)O [Compound 109, (S)-2-tert-butoxy-2-(7-(4-chlorophenyl)-5-methyl-2-(3-(1-methyl-1H-indazol-5-yl)phenyl)benzo[d]thiazol-6-yl)acetic acid]
EC50 (HIV-IIIb; [1]): 82 nM
Human Microsomal stability (human liver microsomes): B (a human microsomal stability half-life of less than 300 minutes but greater than or equal to 150 minutes)

Cc1cc2nc(-c3ccnc(-c4ccc5c(cnn5C)c4)c3)sc2c(-c2ccc(Cl)cc2)c1[C@H](OC(C)(C)C)C(=O)O [Compound 113a, (S)-2-tert-butoxy-2-(7-(4-chlorophenyl)-5-methyl-2-(2-(1-methyl-1H-indazol-5-yl)pyridin-4-yl)benzo[d]thiazol-6-yl)acetic acid]
EC50 (HIV-IIIb; [1]): 16 nM
Human Microsomal stability (human liver microsomes): A (a human microsomal stability half-life of greater than or equal to 300 minutes)

Cc1cc2nc(-c3cccc(-c4cnn(C(C)(C)C)c4)c3)sc2c(-c2ccc(Cl)cc2)c1[C@H](OC(C)(C)C)C(=O)O [Compound 141]
EC50 (HIV-IIIb; [1]): 77 nM
Human Microsomal stability (human liver microsomes): B (a human microsomal stability half-life of less than 300 minutes but greater than or equal to 150 minutes)

COc1cc(-c2cccc(-c3nc4cc(C)c([C@H](OC(C)(C)C)C(=O)O)c(-c5ccc(Cl)cc5)c4s3)c2)ccn1 [Compound 152]
EC50 (HIV-IIIb; [1]): 46 nM
Human Microsomal stability (human liver microsomes): C (a human microsomal stability half-life of less than 150 minutes)

Cc1cc2nc(-c3cccc(-c4cnn(C)c4)c3)sc2c(-c2ccc(Cl)cc2)c1[C@H](OC(C)(C)C)C(=O)O [Compound 158]
EC50 (HIV-IIIb; [1]): 17 nM
Human Microsomal stability (human liver microsomes): C (a human microsomal stability half-life of less than 150 minutes)

Cc1cc2nc(-c3ccnc(-n4ccc5cnccc5c4=O)c3)sc2c(-c2ccc(Cl)cc2)c1[C@H](OC(C)(C)C)C(=O)O [Compound 186, (S)-2-tert-butoxy-2-(7-(4-chlorophenyl)-5-methyl-2-(2-(1-oxo-2,6-naphthyridin-2(1H)-yl)pyridin-4-yl)benzo[d]thiazol-6-yl)acetic acid]
EC50 (HIV-IIIb; [2]): 4 nM
Human Microsomal stability (human liver microsomes): C (a human microsomal stability half-life of less than 150 minutes)

Cc1cc2nc(-c3ccnc(N4CCN(C(C)C)CC4)n3)sc2c(-c2ccc(Cl)cc2)c1[C@H](OC(C)(C)C)C(=O)O [Compound 202, (S)-2-tert-butoxy-2-(7-(4-chlorophenyl)-2-(2-(4-isopropylpiperazin-1-yl)pyrimidin-4-yl)-5-methylbenzo[d]thiazol-6-yl)acetic acid]
EC50 (HIV-IIIb; [2]): 2 nM
Human Microsomal stability (human liver microsomes): A (a human microsomal stability half-life of greater than or equal to 300 minutes)

Cc1cc2nc(-c3ccc4c(N(C)C)nn(C)c4c3)sc2c(-c2ccc(Cl)cc2)c1[C@H](OC(C)(C)C)C(=O)O [Compound 206, (S)-2-tert-butoxy-2-(7-(4-chlorophenyl)-2-(3-(dimethylamino)-1-methyl-1H-indazol-6-yl)-5-methylbenzo[d]thiazol-6-yl)acetic acid]
EC50 (HIV-IIIb; [2]): 24 nM
Human Microsomal stability (human liver microsomes): C (a human microsomal stability half-life of less than 150 minutes)

Cc1cc2nc(-c3ccc4c(c3)c(-c3cccnc3)nn4C)sc2c(-c2ccc(Cl)cc2)c1[C@H](OC(C)(C)C)C(=O)O [Compound 212, (S)-2-tert-butoxy-2-(7-(4-chlorophenyl)-5-methyl-2-(1-methyl-3-(pyridin-3-yl)-1H-indazol-5-yl)benzo[d]thiazol-6-yl)acetic acid]
EC50 (HIV-IIIb; [2]): 6 nM
EC50 (HIV-IIIb; Table 1): 726 nM
Human Microsomal stability (human liver microsomes): A (a human microsomal stability half-life of greater than or equal to 300 minutes)

Cc1cc2nc(-c3ccc4c(c3)c(N3CCN(C)CC3)nn4C)sc2c(-c2ccc(Cl)cc2)c1[C@H](OC(C)(C)C)C(=O)O [Compound 257, (S)-2-tert-butoxy-2-(7-(4-chlorophenyl)-5-methyl-2-(1-methyl-3-(4-methylpiperazin-1-yl)-1H-indazol-5-yl)benzo[d]thiazol-6-yl)acetic acid]
EC50 (HIV-IIIb; [2]): 5 nM
Human Microsomal stability (human liver microsomes): A (a human microsomal stability half-life of greater than or equal to 300 minutes)

Cc1cc2nc(-c3ccc4c(c3)ncn4Cc3ccccc3)sc2c(-c2ccc(Cl)cc2)c1[C@H](OC(C)(C)C)C(=O)O [Compound 285, (S)-2-(2-(1-benzyl-1H-benzo[d]imidazol-5-yl)-7-(4-chlorophenyl)-5-methylbenzo[d]thiazol-6-yl)-2-tert-butoxyacetic acid]
Human Microsomal stability (human liver microsomes): A (a human microsomal stability half-life of greater than or equal to 300 minutes)

Cc1cc2nc(-c3ccc4c(c3)c(N3CCN(C(C)C(F)(F)F)CC3)nn4C)sc2c(-c2ccc(Cl)cc2)c1[C@H](OC(C)(C)C)C(=O)O (stereo partly drawn) [Compound 493, (2S)-2-tert-butoxy-2-(7-(4-chlorophenyl)-5-methyl-2-(1-methyl-3-(4-((2R/2S)-1,1,1-trifluoropropan-2-yl)piperazin-1-yl)-1H-indazol-5-yl)benzo[d]thiazol-6-yl)acetic acid]
EC50 (HIV-IIIb; Table 2): 51 nM

Cc1cc2nc(-c3ccc4c(n3)c(N3CCN(C)CC3)nn4C)sc2c(-c2ccc(Cl)cc2)c1[C@H](OC(C)(C)C)C(=O)O [Compound 495, (S)-2-tert-butoxy-2-(7-(4-chlorophenyl)-5-methyl-2-(1-methyl-3-(4-methylpiperazin-1-yl)-1H-pyrazolo[4,3-b]pyridin-5-yl)benzo[d]thiazol-6-yl)acetic acid]
EC50 (HIV-IIIb; [2]): 4 nM

Cc1cc2nc(-c3ccc4c(n3)c(-c3cccnc3)nn4C)sc2c(-c2ccc(Cl)cc2)c1[C@H](OC(C)(C)C)C(=O)O [Compound 496, (S)-2-tert-butoxy-2-(7-(4-chlorophenyl)-5-methyl-2-(1-methyl-3-(pyridin-3-yl)-1H-pyrazolo[4,3-b]pyridin-5-yl)benzo[d]thiazol-6-yl)acetic acid]
EC50 (HIV-IIIb; [2]): 5 nM

Cc1cc2nc(-c3ccc4c(c3)c(-c3cncnc3)nn4C)sc2c(-c2ccc(Cl)cc2)c1[C@H](OC(C)(C)C)C(=O)O [Compound 497, (S)-2-tert-butoxy-2-(7-(4-chlorophenyl)-5-methyl-2-(1-methyl-3-(pyrimidin-5-yl)-1H-indazol-5-yl)benzo[d]thiazol-6-yl)acetic acid]
EC50 (HIV-IIIb; [2]): 4 nM

Cc1cc2nc(-c3ccnc(-c4cnc5[nH]cc(C)c5c4)c3)sc2c(-c2ccc(Cl)cc2)c1[C@H](OC(C)(C)C)C(=O)O [Compound 498, (S)-2-tert-butoxy-2-(7-(4-chlorophenyl)-5-methyl-2-(2-(3-methyl-1H-pyrrolo[2,3-b]pyridin-5-yl)pyridin-4-yl)benzo[d]thiazol-6-yl)acetic acid]
EC50 (HIV-IIIb; [2]): 34 nM

CC(=O)N(C)c1ccc(-c2cc(-c3nc4cc(C)c([C@H](OC(C)(C)C)C(=O)O)c(-c5ccc(Cl)cc5)c4s3)ccn2)cc1 [Compound 499, (S)-2-(tert-butoxy)-2-(7-(4-chlorophenyl)-5-methyl-2-(2-(4-(N-methylacetamido)phenyl)pyridin-4-yl)benzo[d]thiazol-6-yl)acetic acid]
EC50 (HIV-IIIb; [2]): 12 nM

(S)-2-tert-butoxy-2-(7-(4-chlorophenyl)-2-(3-(4,4-dimethylpiperazin-1-ium-1-yl)-1-methyl-1H-indazol-5-yl)-5-methylbenzo[d]thiazol-6-yl)acetate [Compound 494]
EC50 (HIV-IIIb; Table 2): 2880 nM
